Measured values from patent publication US20060067981A1, “Contact lens with improved biocidal activity and related methods and materials” (Bausch & Lomb Incorporated, priority 2004, published 2006).
Several values for one entry are separate records, joined by “and”; a condition that tells them apart may be missing. Equal values may be shown once.

What was measured:
Assay type in all cases: physicochemical
[1] = Loading time by soaking commercial contact lenses in 3 ml contact cases; conditions: most of buffer system
Method: The loading time for most of buffer system is about 12-24 hours by soaking commercial contact lenses inside the 3 ml contact cases with a certain concentration of domaphen bromide solution.

[2] = Uptake of domaphen bromide by lens in citrate buffer system
Method: Three solutions made according to the formulation of Example 1 were made with a 25 ppm (Solution 10), 50 ppm (Solution 11) and 100 ppm (Solution 12) domaphen bromide concentrations, except the borate buffer system was replaced with an equivalent amount of a citrate buffer system and the water amount was adjusted accordingly. Two 3 ml portions of Solutions 10-12 in solution were placed in six separate vials. A total of six Sureview™ lens (Johnson & Johnson, New Brunswick, N.J.) were placed in the vials—one lens per each vial. The vials remained in the lens for a first 24 hour soaking cycle. After 24 hours, the lenses were removed. The amount of domaphen bromide remaining in each of the 3 ml solutions is measured by ultraviolet visible (UV/VIS) spectrometer analytical method. Inhibition % is calculated to reflect the amount of domaphen bromide that remains in the solution expressed as a percentage of the total amount of domaphen bromide. Inhibition % is recorded in Table 5 corresponding to a soaking time of 24 hours. This completed the first test cycle. The lenses removed during the first soaking cycle were placed in six fresh vials containing two 3 ml portions of solutions 10-12 to commence the second 24 hour soaking cycle. Care was taken to make sure that the solution the lens is soaked in during the second cycle is identical to the solution in the first cycle. Thus, each pair of lenses is soaked in concentrations of Solutions 10-12 identical to the concentration that the lens was soaked in during the first soak cycle. After 24 hours, the lenses are removed. The solutions are tested to determine the concentration domaphen bromide in solution. The inhibition % is calculated and recorded in Table 5 corresponding to 48 hour soak time. The lenses were again soaked for a third and fourth soak cycle. The domaphen bromide inhibition % was recorded after the third and fourth soak cycle and recorded in Table 5 corresponding to the 72 hour and 96 hour soak times, respectively.

[3] = Uptake of domaphen bromide by lens in tris(hydroxymethyl)aminomethane buffer system
Method: Three solutions made according to the formulation of Example 1 were made with a 25 ppm (Solution 4), 50 ppm (Solution 5) and 100 ppm (Solution 6) domaphen bromide concentrations, except the borate buffer system was replaced with an equivalent amount of a tris(hydroxymethyl)aminomethane buffer system and the water amount was adjusted accordingly. The term “equivalent amount” means the amount required to adjust the pH to the desired pH as another buffer. Two 3 ml portions of Solutions 4-6 in solution were placed in six separate vials. A total of six Sureview™ lens (Johnson & Johnson, New Brunswick, N.J.) were placed in the vials—one lens per each vial. The vials remained in the lens for a first 24 hour soaking cycle. After 24 hours, the lenses were removed. The amount of domaphen bromide remaining in each of the 3 ml solutions is measured by ultraviolet visible (UV/VIS) spectrometer analytical method. Inhibition % is calculated to reflect the amount of domaphen bromide that remains in the solution expressed as a percentage of the total amount of domaphen bromide. Inhibition % is recorded in Table 3 corresponding to a soaking time of 24 hours. This completed first test cycle. The lenses removed during the first soaking cycle were placed in six fresh vials containing two 3 ml portions of solutions 4-6 to commence the second 24 hour soaking cycle. Care was taken to make sure that the solution the lens is soaked in during the second cycle is identical to the solution in the first cycle. Thus, each pair of lenses is soaked in identical concentrations of Solutions 4-6. After 24 hours, the lenses are removed. The solutions are tested to determine the concentration domaphen bromide in solution. The inhibition % is calculated and recorded in Table 3 corresponding to 48 hour soak time. The lenses were again soaked for a third and fourth soak cycle. The domaphen bromide inhibition % was recorded after the third and fourth soak-cycle and recorded in Table 3 corresponding to the 72 hour and 96 hour soak times, respectively.

[4] = Uptake of domaphen bromide by lens in phosphate buffer system; conditions: % remaining in solution; for Inhibition % in 25 ppm Domiphen Bromide: 25 ppm (Solution 7); for Inhibition % in 50 ppm Domiphen Bromide: 50 ppm (Solution 8); for Inhibition % in 100 ppm Domiphen Bromide: 100 ppm (Solution 9)
Method: Three solutions made according to the formulation of Example 1 were made with a 25 ppm (Solution 7), 50 ppm (Solution 8) and 100 ppm (Solution 9) domaphen bromide concentrations, except the borate buffer system was replaced with an equivalent amount of a phosphate buffer system and the amount of water was adjusted accordingly. Two 3 ml portions of Solutions 7-9 in solution were placed in six separate vials. A total of six Sureview™ lens (Johnson & Johnson, New Brunswick, N.J.) were placed in the vials—one lens per each vial. The vials remained in the lens for a first 24 hour soaking cycle. After 24 hours, the lenses were removed. The amount of domaphen bromide remaining in each of the 3 ml solutions is measured by ultraviolet visible (UV/VIS) spectrometer analytical method. Inhibition % is calculated to reflect the amount of domaphen bromide that remains in the solution expressed as a percentage of the total amount of domaphen bromide. Inhibition % is recorded in Table 4 corresponding to a soaking time of 24 hours. This completed the first test cycle. The lenses removed during the first soaking cycle were placed in six fresh vials containing two 3 ml portions of solutions 7-9 to commence the second 24 hour soaking cycle. Care was taken to make sure that the solution the lens is soaked in during the second cycle is identical to the solution in the first cycle. Thus, each pair of lenses is soaked in concentrations of Solutions 7-9 identical to the concentration that the lens was soaked in during the first soak cycle. After 24 hours, the lenses are removed. The solutions are tested to determine the concentration domaphen bromide in solution. The inhibition % is calculated and recorded in Table 4 corresponding to 48 hour soak time. The lenses were again soaked for a third and fourth soak cycle. The domaphen bromide inhibition % was recorded after the third and fourth soak-cycle and recorded in Table 4 corresponding to the 72 hour and 96 hour soak times, respectively.

[5] = Uptake of domaphen bromide by lens in borate buffer system; conditions: for Inhibition % in 25 ppm Domiphen Bromide / Inhibition % in 50 ppm Domiphen Bromide / Inhibition % in 100 ppm Domiphen Bromide: Borate buffer, % remaining in solution; for Inhibition % in 25 ppm Domiphen Bromide: 25 ppm (Solution 13); for Inhibition % in 50 ppm Domiphen Bromide: 50 ppm (Solution 14); for Inhibition % in 100 ppm Domiphen Bromide: 100 ppm (Solution 15)
Method: Three solutions made according to the formulation of Example 1 were made with a 25 ppm (Solution 13), 50 ppm (Solution 14) and 100 ppm (Solution 15) domaphen bromide concentrations. Two 3 ml portions of Solutions 13-15 in solution were placed in six separate vials. A total of six Sureview™ lens (Johnson & Johnson, New Brunswick, N.J.) were placed in the vials—one lens per each vial. The vials remained in the lens for a first 24 hour soaking cycle. After 24 hours, the lenses were removed. The amount of domaphen bromide remaining in each of the 3 ml solutions is measured by ultraviolet visible (UV/VIS) spectrometer analytical method. Inhibition % is calculated to reflect the amount of domaphen bromide that remains in the solution expressed as a percentage of the total amount of domaphen bromide. Inhibition % is recorded in Table 6 corresponding to a soaking time of 24 hours. This completed the first test cycle. The lenses removed during the first soaking cycle were placed in six fresh vials containing two 3 ml portions of Solutions 13-15 to commence the second 24 hour soaking cycle. Care was taken to make sure that the solution the lens is soaked in during the second cycle is identical to the solution in the first cycle. Thus, each pair of lenses is soaked in concentrations of Solutions 13-15 identical to the concentration that the lens was soaked in during the first soak cycle. After 24 hours, the lenses are removed. The solutions are tested to determine the concentration domaphen bromide in solution. The inhibition % is calculated and recorded in Table 6 corresponding to 48 hour soak time. The lenses were again soaked for a third and fourth soak cycle. The domaphen bromide inhibition % was recorded after the third and fourth soak cycle and recorded in Table 6 corresponding to the 72 hour and 96 hour soak times, respectively.

Structure (SMILES): CCCCCCCCCCCC[N+](C)(C)CCOc1ccccc1 [Domiphen Bromide]
- loading time [1]: 12 to 24 h
- Domiphen bromide remaining in solution (%) ([2]; 25 ppm (Solution 10), soaking time 24 hours): 63.20% and 75.66%
- Domiphen bromide remaining in solution (%) ([2]; 25 ppm (Solution 10), soaking time 48 hours): 71.57% and 73.25%
- Domiphen bromide remaining in solution (%) ([2]; 25 ppm (Solution 10), soaking time 72 hours): 64.34% and 76.59%
- Domiphen bromide remaining in solution (%) ([2]; 25 ppm (Solution 10), soaking time 96 hours): 59.17% and 64.89%
- Domiphen bromide remaining in solution (%) ([2]; 50 ppm (Solution 11), soaking time 24 hours): 76.51% and 80.02%
- Domiphen bromide remaining in solution (%) ([2]; 50 ppm (Solution 11), soaking time 48 hours): 78.39% and 72.39%
- Domiphen bromide remaining in solution (%) ([2]; 50 ppm (Solution 11), soaking time 72 hours): 67.91% and 77.42%
- Domiphen bromide remaining in solution (%) ([2]; 50 ppm (Solution 11), soaking time 96 hours): 59.28% and 69.87%
- Domiphen bromide remaining in solution (%) ([2]; 100 ppm (Solution 12), soaking time 24 hours): 75.59% and 77.95%
- Domiphen bromide remaining in solution (%) ([2]; 100 ppm (Solution 12), soaking time 48 hours): 79.63% and 70.90%
- Domiphen bromide remaining in solution (%) ([2]; 100 ppm (Solution 12), soaking time 72 hours): 71.04% and 81.39%
- Domiphen bromide remaining in solution (%) ([2]; 100 ppm (Solution 12), soaking time 96 hours): 62.97% and 74.47%
- Domiphen bromide remaining in solution (% of total) ([3]; 25 ppm (Solution 4), soaking time 24 hours): 78.59% and 75.76%
- Domiphen bromide remaining in solution (% of total) ([3]; 25 ppm (Solution 4), soaking time 48 hours): 57.91% and 62.72%
- Domiphen bromide remaining in solution (% of total) ([3]; 25 ppm (Solution 4), soaking time 72 hours): 59.19% and 53.50%
- Domiphen bromide remaining in solution (% of total) ([3]; 25 ppm (Solution 4), soaking time 96 hours): 55.13% and 52.65%
- Domiphen bromide remaining in solution (% of total) ([3]; 50 ppm (Solution 5), soaking time 24 hours): 73.59% and 67.65%
- Domiphen bromide remaining in solution (% of total) ([3]; 50 ppm (Solution 5), soaking time 48 hours): 68.18% and 66.35%
- Domiphen bromide remaining in solution (% of total) ([3]; 50 ppm (Solution 5), soaking time 72 hours): 58.25% and 56.17%
- Domiphen bromide remaining in solution (% of total) ([3]; 50 ppm (Solution 5), soaking time 96 hours): 80.84% and 81.31%
- Domiphen bromide remaining in solution (% of total) ([3]; 100 ppm (Solution 6), soaking time 24 hours): 68.39% and 63.58%
- Domiphen bromide remaining in solution (% of total) ([3]; 100 ppm (Solution 6), soaking time 48 hours): 65.50% and 63.71%
- Domiphen bromide remaining in solution (% of total) ([3]; 100 ppm (Solution 6), soaking time 72 hours): 56.54% and 58.19%
- Domiphen bromide remaining in solution (% of total) ([3]; 100 ppm (Solution 6), soaking time 96 hours): 53.91% and 59.25%
- Inhibition % in 25 ppm Domiphen Bromide ([4]; soaking time 24 hours): 43.92% and 51.40%
- Inhibition % in 25 ppm Domiphen Bromide ([4]; soaking time 48 hours): 50.19% and 51.75%
- Inhibition % in 25 ppm Domiphen Bromide ([4]; soaking time 72 hours): 52.34% and 47.54%
- Inhibition % in 25 ppm Domiphen Bromide ([4]; soaking time 96 hours): 41.31% and 34.37%
- Inhibition % in 50 ppm Domiphen Bromide ([4]; soaking time 24 hours): 47.12% and 49.78%
- Inhibition % in 50 ppm Domiphen Bromide ([4]; soaking time 48 hours): 49.51% and 49.86%
- Inhibition % in 50 ppm Domiphen Bromide ([4]; soaking time 72 hours): 46.67% and 48.35%
- Inhibition % in 50 ppm Domiphen Bromide ([4]; soaking time 96 hours): 34.47% and 37.30%
- Inhibition % in 100 ppm Domiphen Bromide ([4]; soaking time 24 hours): 48.87% and 47.95%
- Inhibition % in 100 ppm Domiphen Bromide ([4]; soaking time 48 hours): 46.77% and 47.52%
- Inhibition % in 100 ppm Domiphen Bromide ([4]; soaking time 72 hours): 43.55% and 45.54%
- Inhibition % in 100 ppm Domiphen Bromide ([4]; soaking time 96 hours): 34.67% and 37.15%
- Inhibition % in 25 ppm Domiphen Bromide ([5]; soaking time 24 hours): 21.85%
- Inhibition % in 25 ppm Domiphen Bromide ([5]; soaking time 48 hours): 36.68% and 35.57%
- Inhibition % in 25 ppm Domiphen Bromide ([5]; soaking time 72 hours): 33.41% and 33.18%
- Inhibition % in 25 ppm Domiphen Bromide ([5]; soaking time 96 hours): 31.54% and 39.03%
- Inhibition % in 50 ppm Domiphen Bromide ([5]; soaking time 24 hours): 29.80% and 29.88%
- Inhibition % in 50 ppm Domiphen Bromide ([5]; soaking time 48 hours): 36.31% and 32.62%
- Inhibition % in 50 ppm Domiphen Bromide ([5]; soaking time 72 hours): 31.35% and 37.25%
- Inhibition % in 50 ppm Domiphen Bromide ([5]; soaking time 96 hours): 28.30% and 37.79%
- Inhibition % in 100 ppm Domiphen Bromide ([5]; soaking time 24 hours): 14.68% and 17.15%
- Inhibition % in 100 ppm Domiphen Bromide ([5]; soaking time 48 hours): 19.08% and 15.10%
- Inhibition % in 100 ppm Domiphen Bromide ([5]; soaking time 72 hours): 12.02% and 18.58%
- Inhibition % in 100 ppm Domiphen Bromide ([5]; soaking time 96 hours): 14.11% and 20.21%
- loading percentage (100% minus Inhibition%) ([5]; borate buffer, as high as): 70-80%
